Laboratory results from PubChem BioAssay (NCI).
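48-hour exposure; five concentrations; linearly interpolated endpoints. TGI: total growth inhibition.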

Key:
Assay in all cases: NCI-60 cell line screen, 48 h
SK-MEL-28 melanoma = tested on: SK-MEL-28 melanoma
SNB-75 CNS = tested on: SNB-75 CNS
T-47D breast = tested on: T-47D breast
MCF7 breast = tested on: MCF7 breast
K-562 leukemia = tested on: K-562 leukemia
MDA-MB-231 breast = tested on: MDA-MB-231 breast
SN12C renal = tested on: SN12C renal
HL-60(TB) leukemia = tested on: HL-60(TB) leukemia
HCT-116 colon = tested on: HCT-116 colon
HOP-62 NSCLC = tested on: HOP-62 NSCLC
TK-10 renal = tested on: TK-10 renal
MDA-N = tested on: MDA-N
COLO 205 colon = tested on: COLO 205 colon
OVCAR-8 ovarian = tested on: OVCAR-8 ovarian
UO-31 renal = tested on: UO-31 renal
BT-549 breast = tested on: BT-549 breast
HT29 colon = tested on: HT29 colon
SF-295 CNS = tested on: SF-295 CNS
SK-MEL-5 melanoma = tested on: SK-MEL-5 melanoma
NCI-H460 lung = tested on: NCI-H460 lung
MALME-3M melanoma = tested on: MALME-3M melanoma
OVCAR-3 ovarian = tested on: OVCAR-3 ovarian
HCC-2998 colon = tested on: HCC-2998 colon
A549 NSCLC = tested on: A549 NSCLC
HS 578T breast = tested on: HS 578T breast
UACC-257 melanoma = tested on: UACC-257 melanoma
ACHN renal = tested on: ACHN renal
SK-MEL-2 melanoma = tested on: SK-MEL-2 melanoma
LOX IMVI melanoma = tested on: LOX IMVI melanoma
U251 CNS = tested on: U251 CNS
M14 melanoma = tested on: M14 melanoma
IGROV1 ovarian = tested on: IGROV1 ovarian
CCRF-CEM leukemia = tested on: CCRF-CEM leukemia
RPMI-8226 leukemia = tested on: RPMI-8226 leukemia
NCI-H226 lung = tested on: NCI-H226 lung
MDA-MB-435 = tested on: MDA-MB-435
OVCAR-5 ovarian = tested on: OVCAR-5 ovarian
SF-539 CNS = tested on: SF-539 CNS
NCI-H23 lung = tested on: NCI-H23 lung
UACC-62 melanoma = tested on: UACC-62 melanoma
SNB-19 CNS = tested on: SNB-19 CNS
SW-620 colon = tested on: SW-620 colon
CAKI-1 renal = tested on: CAKI-1 renal
PC-3 prostate = tested on: PC-3 prostate
KM12 colon = tested on: KM12 colon
HCT-15 colon = tested on: HCT-15 colon
DU-145 prostate = tested on: DU-145 prostate
SR leukemia = tested on: SR leukemia
786-0 renal = tested on: 786-0 renal
EKVX NSCLC = tested on: EKVX NSCLC
SK-OV-3 ovarian = tested on: SK-OV-3 ovarian
MOLT-4 leukemia = tested on: MOLT-4 leukemia
OVCAR-4 ovarian = tested on: OVCAR-4 ovarian
RXF 393 renal = tested on: RXF 393 renal
SF-268 CNS = tested on: SF-268 CNS
NCI/ADR-RES ovarian = tested on: NCI/ADR-RES ovarian
A498 renal = tested on: A498 renal
HOP-92 NSCLC = tested on: HOP-92 NSCLC

## C=C(COC(=O)C(C)C)[C@H]1Oc2ccc(C(C)=O)cc2[C@@H]1OC(=O)C(C)C
SK-MEL-28 melanoma
  TGI: > 100 µM
SNB-75 CNS
  TGI: > 100 µM
T-47D breast
  TGI: > 100 µM
MCF7 breast
  TGI: > 100 µM
K-562 leukemia
  TGI: > 100 µM
MDA-MB-231 breast
  TGI: > 100 µM
SN12C renal
  TGI: > 100 µM
HL-60(TB) leukemia
  TGI: > 100 µM
HCT-116 colon
  TGI: > 100 µM
HOP-62 NSCLC
  TGI: > 100 µM
TK-10 renal
  TGI: > 100 µM
MDA-N
  TGI: > 100 µM
COLO 205 colon
  TGI: > 100 µM
OVCAR-8 ovarian
  TGI: > 100 µM
UO-31 renal
  TGI: > 100 µM
BT-549 breast
  TGI: > 100 µM
HT29 colon
  TGI: > 100 µM
SF-295 CNS
  TGI: > 100 µM
SK-MEL-5 melanoma
  TGI: > 100 µM
NCI-H460 lung
  TGI: > 100 µM
MALME-3M melanoma
  TGI: > 100 µM
OVCAR-3 ovarian
  TGI: > 100 µM
HCC-2998 colon
  TGI: > 100 µM
A549 NSCLC
  TGI: > 100 µM
HS 578T breast
  TGI: > 100 µM
UACC-257 melanoma
  TGI: > 100 µM
ACHN renal
  TGI: > 100 µM
SK-MEL-2 melanoma
  TGI: > 100 µM
LOX IMVI melanoma
  TGI: > 100 µM
U251 CNS
  TGI: > 100 µM
M14 melanoma
  TGI: > 100 µM
IGROV1 ovarian
  TGI: > 100 µM
CCRF-CEM leukemia
  TGI: > 100 µM
RPMI-8226 leukemia
  TGI: > 100 µM
NCI-H226 lung
  TGI: > 100 µM
MDA-MB-435
  TGI: > 100 µM
OVCAR-5 ovarian
  TGI: > 100 µM
SF-539 CNS
  TGI: > 100 µM
NCI-H23 lung
  TGI: > 100 µM
UACC-62 melanoma
  TGI: > 100 µM
SNB-19 CNS
  TGI: > 100 µM
SW-620 colon
  TGI: > 100 µM
CAKI-1 renal
  TGI: > 100 µM
PC-3 prostate
  TGI: > 100 µM
KM12 colon
  TGI: > 100 µM
HCT-15 colon
  TGI: > 100 µM
DU-145 prostate
  TGI: > 100 µM
SR leukemia
  TGI: > 100 µM
786-0 renal
  TGI: > 100 µM
EKVX NSCLC
  TGI: > 100 µM
SK-OV-3 ovarian
  TGI: > 100 µM
MOLT-4 leukemia
  TGI: > 100 µM
OVCAR-4 ovarian
  TGI: > 100 µM
RXF 393 renal
  TGI: > 100 µM
SF-268 CNS
  TGI: > 100 µM

## CC1CN=C(N(C)C(=O)Nc2ccc(Cl)c(Cl)c2)S1 (stereo not drawn)
SK-MEL-28 melanoma
  TGI: 37.9 µM
SNB-75 CNS
  TGI: > 100 µM
T-47D breast
  TGI: > 100 µM
MCF7 breast
  TGI: 59.7 µM
K-562 leukemia
  TGI: > 100 µM
NCI/ADR-RES ovarian
  TGI: 73.2 µM
MDA-MB-231 breast
  TGI: > 100 µM
SN12C renal
  TGI: > 100 µM
HL-60(TB) leukemia
  TGI: 57.1 µM
A498 renal
  TGI: > 100 µM
HCT-116 colon
  TGI: > 100 µM
HOP-62 NSCLC
  TGI: > 100 µM
TK-10 renal
  TGI: 92.5 µM
MDA-N
  TGI: > 100 µM
COLO 205 colon
  TGI: > 100 µM
OVCAR-8 ovarian
  TGI: > 100 µM
UO-31 renal
  TGI: > 100 µM
HT29 colon
  TGI: > 100 µM
SF-295 CNS
  TGI: > 100 µM
SK-MEL-5 melanoma
  TGI: 29.9 µM
NCI-H460 lung
  TGI: > 100 µM
MALME-3M melanoma
  TGI: > 100 µM
OVCAR-3 ovarian
  TGI: > 100 µM
HCC-2998 colon
  TGI: > 100 µM
A549 NSCLC
  TGI: > 100 µM
HS 578T breast
  TGI: > 100 µM
UACC-257 melanoma
  TGI: > 100 µM
ACHN renal
  TGI: > 100 µM
SK-MEL-2 melanoma
  TGI: 44.2 µM
LOX IMVI melanoma
  TGI: 91.4 µM
U251 CNS
  TGI: > 100 µM
M14 melanoma
  TGI: 38 µM
IGROV1 ovarian
  TGI: > 100 µM
CCRF-CEM leukemia
  TGI: > 100 µM
RPMI-8226 leukemia
  TGI: > 100 µM
OVCAR-5 ovarian
  TGI: 89.9 µM
SF-539 CNS
  TGI: 52.6 µM
NCI-H23 lung
  TGI: > 100 µM
SNB-19 CNS
  TGI: > 100 µM
SW-620 colon
  TGI: > 100 µM
CAKI-1 renal
  TGI: 61.8 µM
PC-3 prostate
  TGI: > 100 µM
KM12 colon
  TGI: > 100 µM
HCT-15 colon
  TGI: 91.5 µM
DU-145 prostate
  TGI: > 100 µM
SR leukemia
  TGI: > 100 µM
786-0 renal
  TGI: > 100 µM
EKVX NSCLC
  TGI: > 100 µM
SK-OV-3 ovarian
  TGI: > 100 µM
MOLT-4 leukemia
  TGI: > 100 µM
OVCAR-4 ovarian
  TGI: > 100 µM
HOP-92 NSCLC
  TGI: 22.9 µM
SF-268 CNS
  TGI: > 100 µM
